Laboratory results as given in patent publication US9421204B2, “Oligomer modified diaromatic substituted compounds” (priority 2010, dated 2016).
Read-outs that look alike come from different tables or passages of the source.

How the values were obtained:
CEM-SS cells [1] = assay: Toxicity XTT in CEM-SS cells (cytoprotection assay); format: cell-based; settings: XTT; read-out: CEM-SS TC50
In short: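 CEM-SS cells in exponential growth (>95% viable) were plated with compound alone, as eleven half-log dilutions in triplicate, at 37 °C and 5% CO2. Viability was measured by XTT/PMS metabolism over 4 h, read at 450/650 nm. Toxicity was derived by four-parameter curve fitting.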

NL4-3L100I = assay: Anti-HIV cytoprotection assay, drug resistant NL4-3 L100I; format: cell-based; settings: HIV-1 strain NL4-3L100I; for EC50: CEM-SS cells
Experimental: (§1) Cells were prepared as described above. Virus Preparation—The wild type NL4-3 and drug resistant A17 viruses were obtained from the NIH AIDS Research and Reference Reagent Program and stock virus pools were produced in CEM-SS cells. Amino acid substitutes of L100I, Y181C and P23L were introduced by site-directed mutagenesis into pN L4-3 and stock virus pools were produced in CEM-SS cells. A pretitered aliquot of virus was removed from the freezer (−80° C.) and allowed to thaw slowly to room temperature in a biological safety cabinet. Virus was re-suspended and diluted into tissue culture medium such that the amount of virus added to each well in a volume of 50 μL was the amount determined to yield 85 to 95% cell killing at 6 days post-infection.
(§2) Plate Format—Each plate contains cell control wells (cells only), virus control wells (cells plus virus), drug toxicity wells (cells plus drug only), drug colorimetric control wells (drug only) as well as experimental wells (drug plus cells plus virus). Samples were tested in triplicate with eleven half-log dilutions per compound. Efficacy and Toxicity XTT—Following incubation at 37° C. in a 5% CO2 incubator, the test plates were stained with the tetrazolium dye XTT (2,3-bis(2-methoxy-4-nitro-5-sulfophenyl)-5-[(phenylamino)carbonyl]-2H-tetrazolium hydroxide). XTT-tetrazolium was metabolized by the mitochondrial enzymes of metabolically active cells to a soluble formazan product, allowing rapid quantitative analysis of the inhibition of HIV induced cell killing by anti-HIV test substances. XTT solution was prepared daily as a stock of 1 mg/mL in RPMI1640. Phenazine methosulfate (PMS) solution was prepared at 0.15 mg/mL in PBS and stored in the dark at −20° C. XTTIPMS stock was prepared immediately before use by adding 40 μL of PMS per ml of XTT solution. Fifty microliters of XTT/PMS was added to each well of the plate and the plate was re-incubated for 4 hours at 37° C. Plates were sealed with adhesive plate sealers and shaken gently or inverted several times to mix the soluble formazan product and the plate was read spectrophotometrically at 450/650 nm with a Molecular Devices Vmax plate reader.
(§3) Data Analysis—Raw data was collected from the Softmax Pro 4.6 software and imported into a Excel XLFit4 spreadsheet for analysis by four parameter curve fit calculations. Both antiviral activity and toxicity are calculated.

NL4-3Y181C = assay: Anti-HIV cytoprotection assay, drug resistant NL4-3 Y181C; format: cell-based; settings: HIV-1 strain NL4-3Y181C; for EC50: CEM-SS cells
Experimental: as §1, §2, §3

NL4-3P236L = assay: Anti-HIV cytoprotection assay, drug resistant NL4-3 P236L; format: cell-based; settings: HIV-1 strain NL4-3P236L; for EC50: CEM-SS cells
Experimental: as §1, §2, §3

CEM-SS cells [2] = assay: Toxicity XTT in CEM-SS cells (drug resistant strain assay); format: cell-based; settings: read-out: TC50 (the source's name)
Experimental: as §1, §2, §3

Caco-2 monolayers = assay: in vitro; format: in vitro ADME; settings: for Recovery (%) A→B / Recovery (%) B→A / Average Papp, A→B / Average Papp, B→A: 2 hours; for Average Papp, A→B / Average Papp, B→A: pH 7.4
In short: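 Permeability across Caco-2 monolayers in 12-well Transwell inserts (1.13 cm² area), run in duplicate. Calculation uses receiver and donor volumes, nominal dosing concentration, final receiver and donor concentrations, and the mean of nominal and measured 120 min donor concentrations.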

[3] = Toxicity XTT in CEM-SS cells (drug resistant strain assay); format: cell-based; settings: human, CEM-SS cells, read-out: TC50 (the source's name)
Experimental: as §1, §2, §3

[4] = run with HIV-1 strain A17K103N/Y181C
[5] = run with HIV-1 strain NL4-3L100I
[6] = run with HIV-1 strain NL4-3P236L
[7] = run with HIV-1 strain NL4-3Y181C
[8] = Human immunodeficiency virus 1, CEM-SS

**Q.** Which CC50 (CEM-SS cells [1]) does the source give for “5-O-mPEG9-Delavirdine [mPEG9-O-Delavirdine]” here?
**A.** The CC50 was 40.7 µM.

**Q.** And the TI (NL4-3L100I)?
**A.** The TI was over 5.3.

**Q.** What about the EC50 (NL4-3L100I; read-out: EC50) of the same molecule?
**A.** The EC50 was 0.94 µM.

**Q.** And the EC50 (NL4-3Y181C; read-out: EC50)?
**A.** The EC50 was over 5 µM.

**Q.** And the EC50 (NL4-3P236L; read-out: EC50)?
**A.** The EC50 was over 5 µM.

**Q.** What about the CC50 (CEM-SS cells [2]; [4]) of the same molecule?
**A.** Its CC50 is over 5 µM.

**Q.** What about the CC50 (CEM-SS cells [2]; run with HIV-1 strain NL4-3) of the same molecule?
**A.** The CC50 was over 5 µM.

**Q.** And the CC50 (CEM-SS cells [2]; [5])?
**A.** The CC50 was over 5 µM.

**Q.** What about the CC50 (CEM-SS cells [2]; [6]) of the same molecule?
**A.** The CC50 was over 5 µM.

**Q.** And the CC50 (CEM-SS cells [2]; [7])?
**A.** The CC50 was over 5 µM.

**Q.** And the “Efflux Ratio (B→A/A→B)” value (Caco-2 monolayers; Test 1)?
**A.** The value was 12.

**Q.** What about the “Recovery (%) A→B” value (Caco-2 monolayers; Test 1, 10 μM) of the same molecule?
**A.** Its value is 66%.

**Q.** What about the “Recovery (%) B→A” value (Caco-2 monolayers; Test 1, 10 μM) of the same molecule?
**A.** Its value is 72%.

**Q.** What about the “Average Papp, A→B” value (Caco-2 monolayers; Test 1, 10 μM) of the same molecule?
**A.** Its value is 2.22 ×10⁻⁶ cm/s.

**Q.** What about the “Average Papp, B→A” value (Caco-2 monolayers; Test 1, 10 μM) of the same molecule?
**A.** Its value is 27.7 ×10⁻⁶ cm/s.

**Q.** What about the “Efflux Ratio (B→A/A→B)” value (Caco-2 monolayers; Test 2) of the same molecule?
**A.** The value was 7.1.

**Q.** What about the “Recovery (%) A→B” value (Caco-2 monolayers; Test 2, 10 μM) of the same molecule?
**A.** The value was 93%.

**Q.** What about the “Recovery (%) B→A” value (Caco-2 monolayers; Test 2, 10 μM) of the same molecule?
**A.** Its value is 94%.

**Q.** What about the “Average Papp, A→B” value (Caco-2 monolayers; Test 2, 10 μM) of the same molecule?
**A.** The value was 5.27 ×10⁻⁶ cm/s.

**Q.** What about the “Average Papp, B→A” value (Caco-2 monolayers; Test 2, 10 μM) of the same molecule?
**A.** The value was 37.3 ×10⁻⁶ cm/s.

**Q.** For `COCCOCCOCCOCCOc1ccc2[nH]c(C(=O)N3CCN(c4ncccc4NC(C)C)CC3)cc2c1` [mPEG4-O-Delavirdine, 5-O-mPEG4-Delavirdine], which TI (NL4-3L100I) is on record?
**A.** The TI was over 5.3.

**Q.** And the EC50 (NL4-3L100I; [8])?
**A.** Its EC50 is 0.95 µM.

**Q.** What about the EC50 (NL4-3Y181C; [8]) of the same molecule?
**A.** Its EC50 is over 5 µM.

**Q.** What about the EC50 (NL4-3P236L; [8]) of the same molecule?
**A.** Its EC50 is over 5 µM.

**Q.** And the CC50 [3, 4]?
**A.** The CC50 was over 5 µM.

**Q.** What about the CC50 ([3]; run with HIV-1 strain NL4-3) of the same molecule?
**A.** The CC50 was over 5 µM.

**Q.** And the CC50 [3, 5]?
**A.** The CC50 was over 5 µM.

**Q.** What about the CC50 [3, 6] of the same molecule?
**A.** Its CC50 is over 5 µM.

**Q.** And the CC50 [3, 7]?
**A.** The CC50 was over 5 µM.

**Q.** Which results are given for `COCCOCCOCCOc1ccc2[nH]c(C(=O)N3CCN(c4ncccc4NC(C)C)CC3)cc2c1` [mPEG3-O-Delavirdine, 5-O-mPEG3-Delavirdine]?
**A.** TI (NL4-3L100I): >167.0; EC50 (NL4-3L100I; [8]): 0.03 µM; EC50 (NL4-3Y181C; [8]): > 5 µM; EC50 (NL4-3P236L; [8]): > 5 µM; CC50 [3, 4]: > 5 µM; CC50 ([3]; run with HIV-1 strain NL4-3): > 5 µM; CC50 [3, 5]: > 5 µM; CC50 [3, 6]: > 5 µM; CC50 [3, 7]: > 5 µM

**Q.** For `COCCNc1ccc2[nH]c(C(=O)N3CCN(c4ncccc4NC(C)C)CC3)cc2c1` [5-mPEG1-NH-Delavirdine, 5-mPEG-NH-Delavirdine], which TI (NL4-3L100I) is on record?
**A.** The TI was over 1.8.

**Q.** What about the EC50 (NL4-3L100I; [8]) of the same molecule?
**A.** Its EC50 is 0.56 µM.

**Q.** And the TI (NL4-3Y181C)?
**A.** The TI was over 1.2.

**Q.** What about the EC50 (NL4-3Y181C; [8]) of the same molecule?
**A.** Its EC50 is 0.82 µM.

**Q.** And the EC50 (NL4-3P236L; [8])?
**A.** Its EC50 is over 1 µM.

**Q.** And the CC50 [3, 4]?
**A.** The CC50 was over 1 µM.

**Q.** And the CC50 ([3]; run with HIV-1 strain NL4-3)?
**A.** The CC50 was over 1 µM.

**Q.** What about the CC50 [3, 5] of the same molecule?
**A.** Its CC50 is over 1 µM.

**Q.** And the CC50 [3, 6]?
**A.** Its CC50 is over 1 µM.

**Q.** What about the CC50 [3, 7] of the same molecule?
**A.** The CC50 was over 1 µM.

**Q.** With `COCCOCCNc1ccc2[nH]c(C(=O)N3CCN(c4ncccc4NC(C)C)CC3)cc2c1` [5-mPEG2-NH-Delavirdine] as the molecule, how does the TI (NL4-3L100I) read?
**A.** The TI was over 1.4.

**Q.** What about the EC50 (NL4-3L100I; [8]) of the same molecule?
**A.** Its EC50 is 0.71 µM.

**Q.** And the EC50 (NL4-3Y181C; [8])?
**A.** Its EC50 is over 1 µM.

**Q.** What about the TI (NL4-3P236L) of the same molecule?
**A.** Its TI is over 4.4.

**Q.** What about the EC50 (NL4-3P236L; [8]) of the same molecule?
**A.** The EC50 was 0.23 µM.

**Q.** What about the CC50 [3, 4] of the same molecule?
**A.** Its CC50 is over 1 µM.

**Q.** What about the CC50 ([3]; run with HIV-1 strain NL4-3) of the same molecule?
**A.** The CC50 was over 1 µM.

**Q.** And the CC50 [3, 5]?
**A.** The CC50 was over 1 µM.

**Q.** What about the CC50 [3, 6] of the same molecule?
**A.** The CC50 was over 1 µM.

**Q.** And the CC50 [3, 7]?
**A.** The CC50 was over 1 µM.
